# What was measured:
# Assay in all cases: relative viability (nuclei count vs DMSO), 5 days (fraction); higher = more cells survive
# [1] = system: 201T
# How it was run: (§1)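 Values are medians from duplicate plates. Each reflects relative viability, defined as the nuclei count of treated wells over that of vehicle wells. Lung cancer cell lines in 1536-well plates were pin-tool dosed one day after seeding with one drug alone or with a fixed anchor-drug dose plus five library-drug doses (not always all listed) in √10 steps, then fixed, stained and imaged at 4× after 5 days.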
# [2] = system: COR-L 105
# How it was run: as §1
# [3] = system: EPLC-272H
# How it was run: as §1
# [4] = system: H3255
# How it was run: as §1
# [5] = system: HCC-78
# How it was run: as §1
# [6] = system: HCC-827
# How it was run: as §1
# [7] = system: LC-2-ad
# How it was run: as §1
# [8] = system: LCLC-97TM1
# How it was run: as §1
# [9] = system: NCI-H1666
# How it was run: as §1
# [10] = system: NCI-H1915
# How it was run: as §1
# [11] = system: NCI-H2087
# How it was run: as §1
# [12] = system: NCI-H2126
# How it was run: as §1
# [13] = system: NCI-H2347
# How it was run: as §1
# [14] = system: NCI-H23
# How it was run: as §1
# [15] = system: NCI-H2405
# How it was run: as §1
# [16] = system: NCI-H322M
# How it was run: as §1
# [17] = system: NCI-H520
# How it was run: as §1
# [18] = system: NCI-H647
# How it was run: as §1
# [19] = system: NCI-H650
# How it was run: as §1
# [20] = system: NCI-H661
# How it was run: as §1
# [21] = system: PC-14
# How it was run: as §1
# [22] = system: RERF-LC-KJ
# How it was run: as §1
smiles,measurement,setting,value
CC1(C)CCC(c2ccc(Cl)cc2)=C(CN2CCN(c3ccc(C(=O)NS(=O)(=O)c4ccc(N[C@H](CCN5CCOCC5)CSc5ccccc5)c(S(=O)(=O)C(F)(F)F)c4)cc3)CC2)C1 [Navitoclax] + C[C@]1(O)C[C@@H](c2nc(-c3ccc4ccc(-c5ccccc5)nc4c3)c3c(N)nccn32)C1 [Linsitinib] (partner 1 µM),relative viability,[1]; first compound 0.005 µM,1.11
same,relative viability,[1]; first compound 0.01581 µM,1.09
same,relative viability,[1]; first compound 0.05 µM,0.95
same,relative viability,[1]; first compound 0.1581 µM,1.05
same,relative viability,[1]; first compound 0.5 µM,1.01
same,relative viability,[2]; first compound 0.005 µM,0.937
same,relative viability,[2]; first compound 0.01581 µM,1.02
same,relative viability,[2]; first compound 0.05 µM,1.05
same,relative viability,[2]; first compound 0.1581 µM,1.09
same,relative viability,[2]; first compound 0.5 µM,0.979
same,relative viability,[3]; first compound 0.005 µM,1.29
same,relative viability,[3]; first compound 0.1581 µM,1.26
same,relative viability,[3]; first compound 0.5 µM,0.997
same,relative viability,[4]; first compound 0.005 µM,0.917
same,relative viability,[4]; first compound 0.01581 µM,1.12
same,relative viability,[4]; first compound 0.05 µM,0.877
same,relative viability,[4]; first compound 0.1581 µM,0.892
same,relative viability,[4]; first compound 0.5 µM,0.89
same,relative viability,[5]; first compound 0.005 µM,0.468
same,relative viability,[5]; first compound 0.01581 µM,0.604
same,relative viability,[5]; first compound 0.1581 µM,0.523
same,relative viability,[5]; first compound 0.5 µM,0.576
same,relative viability,[6]; first compound 0.005 µM,0.91
same,relative viability,[6]; first compound 0.01581 µM,0.989
same,relative viability,[6]; first compound 0.05 µM,0.864
same,relative viability,[6]; first compound 0.1581 µM,0.926
same,relative viability,[6]; first compound 0.5 µM,0.928
same,relative viability,[7]; first compound 0.005 µM,0.853
same,relative viability,[7]; first compound 0.01581 µM,0.904
same,relative viability,[7]; first compound 0.05 µM,0.787
same,relative viability,[7]; first compound 0.1581 µM,0.789
same,relative viability,[7]; first compound 0.5 µM,0.796
same,relative viability,[8]; first compound 0.005 µM,0.189
same,relative viability,[8]; first compound 0.01581 µM,0.186
same,relative viability,[8]; first compound 0.05 µM,0.193
same,relative viability,[8]; first compound 0.1581 µM,0.18
same,relative viability,[8]; first compound 0.5 µM,0.172
same,relative viability,[9]; first compound 0.005 µM,0.923
same,relative viability,[9]; first compound 0.01581 µM,0.954
same,relative viability,[9]; first compound 0.05 µM,0.82
same,relative viability,[9]; first compound 0.1581 µM,0.705
same,relative viability,[9]; first compound 0.5 µM,0.829
same,relative viability,[10]; first compound 0.005 µM,1.1
same,relative viability,[10]; first compound 0.01581 µM,1.12
same,relative viability,[10]; first compound 0.05 µM,1.07
same,relative viability,[10]; first compound 0.1581 µM,1.05
same,relative viability,[10]; first compound 0.5 µM,1.06
same,relative viability,[11]; first compound 0.005 µM,0.919
same,relative viability,[11]; first compound 0.01581 µM,0.898
same,relative viability,[11]; first compound 0.05 µM,0.956
same,relative viability,[11]; first compound 0.1581 µM,1.14
same,relative viability,[11]; first compound 0.5 µM,0.871
same,relative viability,[12]; first compound 0.005 µM,0.708
same,relative viability,[12]; first compound 0.01581 µM,0.748
same,relative viability,[12]; first compound 0.05 µM,0.786
same,relative viability,[12]; first compound 0.1581 µM,0.661
same,relative viability,[12]; first compound 0.5 µM,0.725
same,relative viability,[13]; first compound 0.005 µM,0.94
same,relative viability,[13]; first compound 0.01581 µM,1.03
same,relative viability,[13]; first compound 0.05 µM,0.876
same,relative viability,[13]; first compound 0.1581 µM,0.954
same,relative viability,[13]; first compound 0.5 µM,0.973
same,relative viability,[14]; first compound 0.005 µM,0.628
same,relative viability,[14]; first compound 0.01581 µM,0.691
same,relative viability,[14]; first compound 0.05 µM,0.559
same,relative viability,[14]; first compound 0.1581 µM,0.509
same,relative viability,[14]; first compound 0.5 µM,0.642
same,relative viability,[15]; first compound 0.005 µM,0.899
same,relative viability,[15]; first compound 0.01581 µM,1.02
same,relative viability,[15]; first compound 0.05 µM,0.922
same,relative viability,[15]; first compound 0.1581 µM,0.937
same,relative viability,[15]; first compound 0.5 µM,0.88
same,relative viability,[16]; first compound 0.005 µM,0.79
same,relative viability,[16]; first compound 0.01581 µM,0.992
same,relative viability,[16]; first compound 0.05 µM,0.96
same,relative viability,[16]; first compound 0.1581 µM,0.953
same,relative viability,[16]; first compound 0.5 µM,0.921
same,relative viability,[17]; first compound 0.005 µM,0.891
same,relative viability,[17]; first compound 0.01581 µM,1.15
same,relative viability,[17]; first compound 0.05 µM,1.12
same,relative viability,[17]; first compound 0.1581 µM,0.832
same,relative viability,[17]; first compound 0.5 µM,0.771
same,relative viability,[18]; first compound 0.005 µM,1.05
same,relative viability,[18]; first compound 0.01581 µM,1.12
same,relative viability,[18]; first compound 0.05 µM,1.23
same,relative viability,[18]; first compound 0.1581 µM,1.17
same,relative viability,[18]; first compound 0.5 µM,1.05
same,relative viability,[19]; first compound 0.005 µM,0.703
same,relative viability,[19]; first compound 0.01581 µM,0.817
same,relative viability,[19]; first compound 0.05 µM,0.97
same,relative viability,[19]; first compound 0.1581 µM,0.767
same,relative viability,[19]; first compound 0.5 µM,0.846
same,relative viability,[20]; first compound 0.005 µM,0.524
same,relative viability,[20]; first compound 0.01581 µM,0.601
same,relative viability,[20]; first compound 0.05 µM,0.575
same,relative viability,[20]; first compound 0.1581 µM,0.552
same,relative viability,[20]; first compound 0.5 µM,0.5
same,relative viability,[21]; first compound 0.005 µM,1.03
same,relative viability,[21]; first compound 0.01581 µM,1.04
same,relative viability,[21]; first compound 0.05 µM,1.07
same,relative viability,[21]; first compound 0.1581 µM,0.926
same,relative viability,[21]; first compound 0.5 µM,0.977
same,relative viability,[22]; first compound 0.005 µM,0.905
same,relative viability,[22]; first compound 0.01581 µM,0.859
same,relative viability,[22]; first compound 0.05 µM,0.927
same,relative viability,[22]; first compound 0.1581 µM,0.915
same,relative viability,[22]; first compound 0.5 µM,0.904

# From the supplement of paper PMC10307832
